The values that follow come from patent EP0443598A2, “Peptides inhibiting the blood coagulation, their process of preparation and their use” (BEHRINGWERKE Aktiengesellschaft, priority 1990, dated 1991).

The subject of the assay is Standard Humanplasma. The assay can be described thus: partial thromboplastin time (PTT) test. The assay is classed as biochemical, Human. The note with it: blank without peptide 38.8. How it is done:
10 mg des Peptids wurden in 1 ml Puffer (20 mM Tris, 150 mM NaCl pH 7.5) gelöst. Das Peptid wurde in der partiellen Thromboplastinzeit (PTT) gegenüber einem Peptid mit derselben Sequenz getestet, das anstelle von Phe(SO₃ H) jedoch Tyr enthielt.
100 Mikroliter Standard Humanplasma 100 Mikroliter Puffer (s.o.) 100 Mikroliter Kaolin/Pathromtin Reagenz (BEHRINGWERKE AG) 2 Minuten bei 37°C 100 Mikroliter CaCl₂-Lösung

[1] abbreviates: Verdünnung 1:4 of peptide solution 10 mg in 1 ml buffer (20 mM Tris, 150 mM NaCl pH 7.5).
Where [2] appears, read: Verdünnung 1:8 of peptide solution 10 mg in 1 ml buffer.
Where [3] appears, read: Verdünnung 1:16 of peptide solution 10 mg in 1 ml buffer.
[4] abbreviates: Verdünnung 1:32 of peptide solution 10 mg in 1 ml buffer.
Setting [5] is: Verdünnung 1:64 of peptide solution 10 mg in 1 ml buffer.
The mark [6] stands for this setting: Verdünnung 1:128 of peptide solution 10 mg in 1 ml buffer.
[7] abbreviates: Verdünnung 1:256 of peptide solution 10 mg in 1 ml buffer.
Setting [8] is: Verdünnung 1:512 of peptide solution 10 mg in 1 ml buffer.
The mark [9] stands for this setting: Verdünnung 1:1024 of peptide solution 10 mg in 1 ml buffer.

For “Asn-Gly-Asp-Phe-Glu-Glu-Ile-Pro-Glu-Glu-Tyr-Leu-OH (NGDFEEIPEEYL; printed: Asn-Gly-Asp-Phe-Glu-Glu-Ile-Pro-Glu-Glu-Tyr-Leu-) [Peptid mit Tyr]”, the “Gerinnungszeiten in Sekunden” value is, setting by setting: under setting [1], 105.2 Sekunden; under setting [2], 80.5 Sekunden; under setting [3], 71.0 Sekunden; under setting [4], 65.0 Sekunden; under setting [5], 57.7 Sekunden; under setting [6], 52.8 Sekunden. Further, the “Gerinnungszeiten in Sekunden” value under setting [7] is given as 47.3 Sekunden, the “Gerinnungszeiten in Sekunden” value under setting [8] is 44.7 Sekunden and the “Gerinnungszeiten in Sekunden” value under setting [9] amounted to 41.7 Sekunden.
With “Asn-Gly-Asp-Phe-Glu-Glu-Ile-Pro-Glu-Glu-Phe(SO₃H)-Leu-OH [Peptid lt. Beispiel]”, the “Gerinnungszeiten in Sekunden” value by setting is: under setting [1], 147.2 Sekunden; under setting [2], 111.8 Sekunden; under setting [3], 89.2 Sekunden; under setting [4], 81.5 Sekunden; under setting [5], 72.8 Sekunden; under setting [6], 63.0 Sekunden. The “Gerinnungszeiten in Sekunden” value by setting is: under setting [7], 56.3 Sekunden; under setting [8], 52.2 Sekunden; under setting [9], 46.8 Sekunden.
